According to US20170247446A1, “TARGETING K-RAS-MEDIATED SIGNALING PATHWAYS AND MALIGNANCY BY ANTI-hLIF ANTIBODIES” (The Regents of the University of California, priority 2014, published 2017):

Tested on: PANC2.03 subcutaneous tumors
Assay: Drug sensitization assay, PANC2.03 subcutaneous tumors in nude mice
Assay type: in vivo
Method: FIG. 5. […] (B) 50,000 cells of PANC2.03 were subcutaneously injected into nude mice for the tumor initiation assay. The anti-LIF AB (clone D25.1.4) was given before the tumor inoculation at 10 mg/kg. The treatment was given three times a week. […] (C) In drug sensitization assay, 0.2×10^6 cells of PANC2.03 cells were first subcutaneously injected into nude mice. […] The mice were randomly separated into 4 different groups: control, Ab only, gemcitabine only, and combination. […] (D) Tumor volume changing curve in the PANC2.03 subcutaneous tumors with the treatment model of (C). […] Tumor proliferation rate=(Tumor vol on the later day−Tumor vol on the initial day)/Tumor vol on the initial day*100. […] The response to gemcitabine was analyzed in pancreatic cancer cells. […] The effects of LIF-neutralizing antibody were also tested in mouse models. […] In a drug sensitization assay, PANC2.03 cells were subcutaneously injected into nude mice to form tumors, then the mice were treated with anti-LIF antibody, gemcitabine, or a combination of anti-LIF antibody and gemcitabine.

## Nc1ccn([C@@H]2O[C@H](CO)[C@@H](O)C2(F)F)c(=O)n1 [gemcitabine]
0.2×10^6 PANC2.03 cells s.c., tumors formed within 14 days post-inoculation, then treatment, FIG. 5C
  complete regressions of tumors: did not lead to the tumor regressions
(Tumor vol on the later day−Tumor vol on the initial day)/Tumor vol on the initial day*100, FIG. 5E
  tumor proliferation rate: still had a positive growth rate
FIG. 5F
  fold change on tumor volumes: still had a positive growth rate
